Source: patent US9091804B2, “Polymer film, and optically-compensatory film, polarizer and liquid-crystal display device comprising the same” (FUJIFILM Corporation, priority 2004, dated 2015)

Key:
[1] = solubility in 1.5 mol/liter aqueous NaOH at 55° C. (visual); conditions: 1.5 mol/liter NaOH at 55° C., visual observation
physchem = conditions: DMSO/water=7/3 solvent system

Solubility [1] [%]	pKa (physchem)	SMILES
<1	> 14	CCN(CC)S(=O)(=O)c1ccc(C)cc1 [A-42]
<1	> 14	OC(c1ccccc1)(c1ccccc1)c1ccccc1 [D-7]
<1	> 14	CN(C(=O)c1ccccc1)c1ccccc1 [FA-1]
<1	> 14	CCN(C(=O)C1CCCCC1)C1CCCCC1 [FB-2]
<1	> 14	O=C(C1CCCCC1)N(C1CCCCC1)C1CCCCC1 [FB-6]
